Assay results: patent US20110053897A1 (IRM LLC, priority 2009, published 2011)
Where two headings read alike, the source gives them in different places.

Molecular target: T1, Syk kinase (Homo sapiens, UniProt P43405)
T1 construct: purchased
Test: Syk kinase inhibition, Caliper LabChip off-chip mobility-shift kinase assay
Type: biochemical
Details: read-out: Syk Enzyme IC50
How it was run: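 Purified Syk pre-incubated 15 min with compound in 100 mM HEPES pH 7.5, 1 mM DTT, 10 mM MgCl2 or MnCl2, 0.002% Brij-35, then 1.5 μM fluorescein peptide and ATP at apparent KM added; 1–1.5 h at room temperature, 4% DMSO, EDTA stop. Microfluidic mobility-shift product/substrate conversion gave % inhibition; IC50 from 12-point series (10–0.00003 μM) by 4-parameter fit.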

| IC50 (Caliper LabChip assay) | IC50 | Compound |
| --- | --- | --- |
| 1.06 µM |  | CC(C)(C)Nc1nc(Nc2cnccn2)c(Cl)c2ccn(CCO)c(=O)c12 [compound 837] |
|  | 0.117 µM | Cc1ncc(-c2cc3cc[nH]c(=O)c3c(Nc3ccc(C4CCN(C5CS(=O)(=O)C5)CC4)c(C)c3)n2)cn1 [compound 107] |
| 0.108 µM |  | O=c1c2c(N[C@H]3CC[C@@H](O)CC3)nc(Nc3cnccn3)cc2ccn1CCN1CCOCC1 [compound 994] |
|  | 0.2 µM | CCN1CCN(CCc2ccc(Nc3nc(Nc4ccccn4)cc4cc[nH]c(=O)c34)cc2)CC1 [compound 551] |
|  | 0.058 µM | O=c1[nH]ccc2cc(C3CCOCC3)nc(Nc3ccc(N4CCOCC4)cc3)c12 [compound 87] |
| 0.035 µM |  | CC(C)(C)Nc1nc(-c2cnc(N)nc2)cc2ccn(CC3CCCO3)c(=O)c12 (centres unmarked) [compound 918] |
|  | 0.039 µM | Cn1ccc2cc(Nc3cnccn3)nc(N[C@H]3CCC[C@H]3O)c2c1=O (racemic) [compound 328] |
|  | 0.081 µM | Cn1ccc2cc(Nc3cnccn3)nc(NCC(F)(F)F)c2c1=O [compound 464] |
|  | 0.99 µM | COc1ccc(-c2cc3cc[nH]c(=O)c3c(Nc3ccc(C4CCN(C5CC5)CC4)c(C)c3)n2)cc1OC [compound 213] |
|  | 0.14 µM | CC(C)Nc1nc(-c2cnc(N)nc2)cc2ccn(CCO)c(=O)c12 [compound 32] |
|  | 1.77 µM | CN1CCC(Nc2nc(-c3cnc(N)nc3)cc3ccn(C)c(=O)c23)CC1 [compound 31] |
| 0.66 µM |  | COCCNC(=O)c1ccc(Nc2nc(Nc3cc(C)ccn3)cc3ccn(C)c(=O)c23)cc1 [compound 652] |
|  | 0.059 µM | CN1CCN([C@H]2CC[C@H](c3ccc(Nc4nc(-c5cncnc5)cc5cc[nH]c(=O)c45)cc3)CC2)CC1 [compound 103] |
|  | 0.067 µM | Cc1ncc(-c2cc3cc[nH]c(=O)c3c(Nc3ccc(C4CCC(N(C)C)CC4)cc3)n2)cn1 (centres unmarked) [compound 106] |
|  | 0.03 µM | CC(C)Nc1nc(Nc2cnccn2)cc2cc[nH]c(=O)c12 [compound 462] |
|  | 0.362 µM | CCNC(=O)c1ccc(Nc2nc(Nc3cc(Cl)ccn3)cc3ccn(C)c(=O)c23)cc1 [compound 382] |
| 1.18 µM |  | CCn1ccc2cc(Nc3cnccn3)nc(N)c2c1=O [compound 802] |
|  | 0.083 µM | COCCN1CC(c2ccc(Nc3nc(-c4cncc(OC)n4)cc4cc[nH]c(=O)c34)cc2)C1 [compound 150] |
|  | 0.343 µM | CCN1CCN(CCc2ccc(Nc3nc(-c4cncc(OC)n4)cc4c(F)c[nH]c(=O)c34)cc2)CC1 [compound 440] |

| IC50 (Caliper LabChip assay) | IC50 | Compound |
| --- | --- | --- |
|  | 0.007 µM | COCCCN1CCC(c2ccc(Nc3nc(-c4cncc(OC)n4)cc4cc[nH]c(=O)c34)cc2C)CC1 [compound 141] |
| 0.034 µM |  | CC(C)(C)Nc1nc(Nc2cnccn2)cc2ccn(C(C)(C)C(N)=O)c(=O)c12 [compound 672] |
|  | 0.055 µM | O=c1[nH]cc(F)c2cc(-c3cncnc3)nc(Nc3ccc(N4CCOCC4)cc3)c12 [compound 429] |
|  | 0.04 µM | COc1cncc(-c2cc3cc[nH]c(=O)c3c(Nc3ccc(C4CCN(CC(N)=O)CC4)c(C)c3)n2)n1 [compound 134] |
| 0.069 µM |  | CCn1ccc2cc(Nc3cc(C(C)(C)O)ccn3)nc(NC(C)(C)CO)c2c1=O [compound 701] |
| 0.018 µM |  | CC(O)c1ccnc(Nc2cc3ccn(CC(N)=O)c(=O)c3c(NC3(C)CCC3)n2)c1 (centres unmarked) [compound 721] |
|  | 0.096 µM | O=c1[nH]ccc2cc(C3=CCOCC3)nc(Nc3ccc(N4CCOCC4)cc3)c12 [compound 86] |
| 0.006 µM |  | CN1CCC(Oc2cc(Nc3cc4ccn(CCO)c(=O)c4c(NC(C)(C)C)n3)ncn2)CC1 [compound 648, 8-(tert-butylamino)-2-(2-hydroxyethyl)-6-(6-(1-methylpiperidin-4-yloxy)pyrimidin-4-ylamino)-2,7-naphthyridin-1(2H)-one] |
|  | 0.228 µM | O=c1[nH]ccc2cc(Nc3ccccn3)nc(NCCc3cccnc3)c12 [compound 289] |
|  | 0.061 µM | COc1cncc(-c2cc3cc[nH]c(=O)c3c(Nc3ccc(CCN4CCN(C(C)=O)CC4)cc3)n2)n1 [compound 45] |
|  | 0.316 µM | CCn1ccc2cc(Nc3cnccn3)nc(N[C@H]3CC[C@@H](O)C3)c2c1=O [compound 425] |
|  | 0.83 µM | [2H]C([2H])([2H])n1ccc2cc(Nc3cc(Cl)ccn3)nc(NC(C)(C)C)c2c1=O [compound 542] |
|  | 1.96 µM | Cc1ccnc(Nc2cc3cc[nH]c(=O)c3c(NCCN(C)C)n2)c1 [compound 588] |
| 0.37 µM |  | CC1(O)CN(Cc2cc(Nc3cc4ccn(CCO)c(=O)c4c(NC(C)(C)C)n3)ncc2F)C1 [compound 610] |
| 0.216 µM |  | CCn1ccc2cc(Nc3cnccn3)nc(N[C@H](CO)C(C)(C)C)c2c1=O [compound 807] |
| 0.324 µM |  | CCn1ccc2cc(Nc3cnccn3)nc(NC3(CO)CCCC3)c2c1=O [compound 788] |
| 0.148 µM |  | CC1(Nc2nc(Nc3cc(C(C)(C)O)ncn3)cc3ccn(CC(N)=O)c(=O)c23)CC1 [compound 620] |
| 0.026 µM |  | CC(C)(C)Nc1nc(Nc2cc(C(=O)NO)ccn2)cc2ccn(CCO)c(=O)c12 [compound 879] |
|  | 0.016 µM | CCN1CCN(CCc2ccc(Nc3nc(Nc4ccc(C(=O)O)cn4)cc4cc[nH]c(=O)c34)cc2)CC1 [compound 581] |

| IC50 (Caliper LabChip assay) | IC50 | Compound |
| --- | --- | --- |
| 0.25 µM |  | Cc1ccnc(Nc2cc3ccn(C)c(=O)c3c(Nc3ccc(C)c(S(N)(=O)=O)c3)n2)c1 [compound 654] |
|  | 0.333 µM | CNC(=O)c1ccc(Nc2nc(Nc3cnccn3)cc3ccn(C)c(=O)c23)cc1 [compound 343] |
| 0.518 µM |  | CC[C@H](CO)Nc1nc(Nc2cc(C)ccn2)cc2ccn(CC)c(=O)c12 [compound 598] |
|  | 0.384 µM | Nc1ncc(-c2cc3cc[nH]c(=O)c3c(NCC3CC3)n2)cn1 [compound 189] |
| 0.39 µM |  | Cc1ccnc(Nc2cc3ccn(CCO)c(=O)c3c(NCC(C)(C)C)n2)c1 [compound 814] |
| 1.9 µM |  | CCn1ccc2cc(Nc3cc(C)ccn3)nc(N)c2c1=O [compound 801] |
| 0.018 µM |  | CCn1ccc2cc(Nc3cnccn3)nc(N[C@H]3CC[C@@H](CO)C3)c2c1=O [compound 793] |
|  | 0.14 µM | Cn1ccc2cc(Nc3cnccn3)nc(NCCCO)c2c1=O [compound 474] |
| 0.286 µM |  | Cc1ccnc(Nc2cc3ccn(CCO)c(=O)c3c(NC3(C)CCC3)n2)c1 [compound 599] |
| 0.247 µM |  | CC(C)Nc1nc(Nc2cc(-c3cccnc3)ccn2)cc2cc[nH]c(=O)c12 [compound 1045] |
| 0.682 µM |  | CC(C)(C)Nc1nc(Nc2cnccn2)cc2c(Cl)cn(CCO)c(=O)c12 [compound 823] |
| 0.003 µM |  | O=c1[nH]ccc2cc(Nc3cnccn3)nc(NC3CCC3)c12 [compound 767] |
|  | 0.76 µM | O=c1[nH]ccc2cc(Nc3ccc(C(F)(F)F)cn3)nc(Nc3ccc(N4CCOCC4)cc3)c12 [compound 577] |
| 0.102 µM |  | CCc1cc(Nc2cc3ccn(CCO)c(=O)c3c(NC(C)(C)C)n2)ncn1 [compound 619, 8-(tert-butylamino)-6-(6-ethylpyrimidin-4-ylamino)-2-(2-hydroxyethyl)-2,7-naphthyridin-1(2H)-one] |
|  | 0.049 µM | Cc1cc(Nc2nc(Nc3cc(CO)ccn3)cc3cc[nH]c(=O)c23)ccc1C1CCN(C2CC2)CC1 [compound 260] |
| 0.216 µM |  | CC(C)(C)Nc1nc(Nc2cc(CNC3COC3)ccn2)cc2ccn(CCO)c(=O)c12 [compound 605] |
| 0.119 µM |  | CCn1ccc2cc(Nc3cc(C)ccn3)nc(Nc3ccc(C(=O)N4CCC(O)C4)cc3)c2c1=O (centres unmarked) [compound 836] |
| 0.679 µM |  | CC(O)c1ccnc(Nc2cc3ccn(CCO)c(=O)c3c(NC(C)(C)C)n2)n1 (centres unmarked) [compound 715] |
